63 compounds from the supplement of paper PMC12317010 can be followed below.

A short description of the data set: collision cross section in nitrogen (drift tube, single-field); higher = larger gas-phase ion size.
[1] abbreviates: ion type: [M+H], ion source: APCI, ion mode: Positive.
Setting [2] is: ion type: [M+H], ion source: ESI, ion mode: Positive.
The mark [3] stands for this setting: ion type: [M+], ion source: APCI, ion mode: Positive.
Setting [4] is: ion type: [M+Na], ion source: ESI, ion mode: Positive.
[5] abbreviates: ion type: [M-H], ion source: ESI, ion mode: Negative.
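Also: chemical standards at 10 µM analysed by drift tube IMS-QTOF MS in about 3.95 torr nitrogen, mean of duplicate injections differing ≤1%, mass error below 10 ppm.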

As for `CCCCC(CC)COC(=O)c1ccc(N(C)C)cc1` (stereo not given) [4-(Dimethylamino)benzoic acid 2-ethylhexyl ester], the “collision cross section in nitrogen” value is on record as 185.9 Å² under setting [1] and 185.2 Å² under setting [2].
Take `CC1(CO)CN(c2ccccc2)NC1=O` (stereo not given) [4-(Hydroxymethyl)-4-methyl-1-phenylpyrazolidin-3-one]: the “collision cross section in nitrogen” value under setting [3] came out at 143.2 Å².
Turning to `CN(CCCC(O)c1cccnc1)N=O` (stereo not given) [4-(Methylnitrosamino)-1-(3-pyridyl)-1-butanol], the “collision cross section in nitrogen” value under setting [1] is on record as 146.4 Å², the “collision cross section in nitrogen” value under setting [2] was 146.4 Å² and the “collision cross section in nitrogen” value under setting [4] stood at 152.5 Å².
Take `COc1cc(S(=O)(=O)Nc2ccccc2)c(OC)cc1N` [4-Amino-2,5-dimethoxy-N-phenylbenzenesulfonamide]: the “collision cross section in nitrogen” value is recorded as 180.5 Å² under setting [4], 167.2 Å² under setting [3] and 169 Å² under setting [5].
On to `CC(=O)c1ccc(N)cc1` [4-Aminoacetophenone], for which the “collision cross section in nitrogen” value under setting [5] is recorded as 125 Å².
Take `NC(=O)c1ccc(N)cc1` [4-Aminobenzamide]: the “collision cross section in nitrogen” value by setting is: under setting [1], 126.4 Å²; under setting [2], 126.5 Å².
Turning to `Nc1ccc(S(=O)(=O)O)cc1` [4-Aminobenzenesulfonic acid], the “collision cross section in nitrogen” value under setting [5] is 134.5 Å².
Regarding `Oc1ccc(Nc2ccccc2)cc1` [4-Anilinophenol], the “collision cross section in nitrogen” value by setting is: under setting [3], 140.4 Å²; under setting [5], 147.4 Å².
Consider `O=C(Oc1ccc(Br)cc1)N1CCN2CCC1CC2` [4-Bromophenyl 1,4-diazabicyclo(3.2.2)nonane-4-carboxylate], for which the “collision cross section in nitrogen” value under setting [1] was 177.7 Å² and the “collision cross section in nitrogen” value under setting [2] is given as 178.5 Å².
On to `CCCCc1ccc(N)cc1` [4-Butylaniline], for which the “collision cross section in nitrogen” value under setting [2] is reported as 149.8 Å².
In the case of `CCCCOc1ccc(N)cc1` [4-Butyloxyaniline], the “collision cross section in nitrogen” value under setting [2] was determined as 153.5 Å².
In the case of `CCCCc1ccc(O)cc1` [4-Butylphenol], the “collision cross section in nitrogen” value under setting [5] amounted to 140.6 Å².
Same read-out and setting: as for `Cc1cc(Cl)ccc1O` [4-Chloro-2-methylphenol], the figure is 124.8 Å²; as for `Cc1cc(O)cc(C)c1Cl` [4-Chloro-3,5-dimethylphenol], 131.7 Å².
On the same count and under the same terms, as for `Cc1cc(O)ccc1Cl` [4-Chloro-3-methylphenol], the figure is 125.9 Å²; as for `Nc1ccc(Cl)c([N+](=O)[O-])c1` [4-Chloro-3-nitroaniline], 126.1 Å².
As for `NS(=O)(=O)c1ccc(Cl)cc1` [4-Chlorobenzenesulphonamide], the “collision cross section in nitrogen” value under setting [5] is given as 134.9 Å².
Same read-out and setting: as for `O=S(=O)(O)c1ccc(Cl)cc1` [4-Chlorobenzenesulphonic acid], the figure is 133.5 Å².
For `O=C(c1ccccc1)c1ccc(Cl)cc1` [4-Chlorobenzophenone], the “collision cross section in nitrogen” value under setting [4] amounted to 151.1 Å².
On to `O=C(O)c1cc[c]([Hg][Cl])cc1` [4-Chloromercuribenzoic acid], for which, under setting [5], the “collision cross section in nitrogen” value was 143 Å².
Consider `Oc1ccc(Cl)cc1` [4-Chlorophenol], for which the “collision cross section in nitrogen” value under setting [5] stood at 120.2 Å².
For `O=C(O)COc1ccc(Cl)cc1` [4-Chlorophenoxyacetic acid], the “collision cross section in nitrogen” value under setting [5] came out at 140.9 Å².
The same measure, in the same setting: the result for `N#CCc1ccc(Cl)cc1` [4-Chlorophenylacetonitrile] reads 130.4 Å².
As to `[O-][n+]1ccc(Cl)cc1` [4-Chloropyridine 1-oxide], the “collision cross section in nitrogen” value under setting [2] turned out to be 121.6 Å² and the “collision cross section in nitrogen” value under setting [5] was determined as 117.2 Å².
Take `Oc1ccc(Cl)c(O)c1` [4-Chlororesorcinol]: under setting [5], the “collision cross section in nitrogen” value turned out to be 122.5 Å².
Still for that read-out and setting: as for `CC(C)(c1ccccc1)c1ccc(O)cc1` [4-Cumylphenol], the figure is 157.8 Å²; as for `N#Cc1ccc(C(=O)O)cc1` [4-Cyanobenzoic acid], 142.1 Å².
As to `Cc1c(N(C)C)c(=O)n(-c2ccccc2)n1C` [4-Dimethylaminoantipyrine], the “collision cross section in nitrogen” value is given as 152.1 Å² under setting [1], 152.5 Å² under setting [2] and 166.2 Å² under setting [4].
As for `CN(C)c1ccc(C=O)cc1` [4-Dimethylaminobenzaldehyde], the “collision cross section in nitrogen” value turned out to be 129.3 Å² under setting [1] and 129 Å² under setting [2].
For `CCCCCCCCCCCCN1CCOCC1` [4-Dodecylmorpholine], in that order: 176.3 Å² and 176.3 Å².
On to `CCOc1ccc(N)cc1` [4-Ethoxyaniline], for which the “collision cross section in nitrogen” value under setting [2] was determined as 139.8 Å².
For `CCc1ccc(O)cc1` [4-Ethylphenol], the “collision cross section in nitrogen” value is 123.4 Å² under setting [3] and 128.7 Å² under setting [5].
As for `Nc1ccc(F)c([N+](=O)[O-])c1` [4-Fluoro-3-nitroaniline], under setting [5], the “collision cross section in nitrogen” value was 121.9 Å².
On to `CCCCCCCc1ccc(O)cc1` [4-Heptylphenol], for which the “collision cross section in nitrogen” value under setting [5] is reported as 157.1 Å².
Take `CCCCCCc1ccc(N)cc1` [4-Hexylaniline]: the “collision cross section in nitrogen” value runs as follows: under setting [1], 162.8 Å²; under setting [2], 162.8 Å².
As to `CCCCCCOc1ccc(N)cc1` [4-Hexyloxyaniline], the “collision cross section in nitrogen” value turned out to be 168 Å² under setting [1] and 167.4 Å² under setting [2].
`CCCCCCc1ccc(O)cc1O` [4-Hexylresorcinol]: the “collision cross section in nitrogen” value under setting [5] is reported as 150.2 Å².
On to `COc1cc(C=O)ccc1O` [4-Hydroxy-3-methoxybenzaldehyde], for which the “collision cross section in nitrogen” value under setting [5] is 128.1 Å².
Regarding `COc1cnccc1O` [4-Hydroxy-3-methoxypyridine], the “collision cross section in nitrogen” value is, setting by setting: under setting [1], 120.7 Å²; under setting [2], 121.8 Å².
Regarding `O=[N+]([O-])c1cc([As](=O)(O)O)ccc1O` [4-Hydroxy-3-nitrophenylarsonic acid], the “collision cross section in nitrogen” value reads like this: under setting [2], 145 Å²; under setting [5], 141.8 Å².
For the compound `O=S(=O)(O)c1cc(O)c2ccc(Nc3ccccc3)cc2c1` [4-Hydroxy-7-(phenylamino)naphthalene-2-sulfonic acid], under setting [5], the “collision cross section in nitrogen” value turned out to be 180.6 Å².
As for `CC(=O)c1ccc(O)cc1` [4-Hydroxyacetophenone], under setting [5], the “collision cross section in nitrogen” value amounted to 125.5 Å².
`C[C@]12CCC(=O)C(O)=C1CC[C@@H]1[C@@H]2CC[C@]2(C)C(=O)CC[C@@H]12` [4-Hydroxyandrostenedione]: the “collision cross section in nitrogen” value under setting [5] was 180 Å².
With `N#Cc1ccc(O)cc1` [4-Hydroxybenzonitrile], the “collision cross section in nitrogen” value under setting [5] stood at 118.1 Å².
The same measure, in the same setting: the result for `O=C(Oc1ccc(O)cc1)c1ccccc1` [4-Hydroxyphenyl benzoate] reads 154.7 Å².
In the case of `CCC(=C(c1ccc(O)cc1)c1ccc(OCCN(C)C)cc1)c1ccccc1` [4-Hydroxytamoxifen], the “collision cross section in nitrogen” value under setting [1] came out at 201 Å², the “collision cross section in nitrogen” value under setting [2] came to 200.9 Å², the “collision cross section in nitrogen” value under setting [4] came out at 196.9 Å² and the “collision cross section in nitrogen” value under setting [5] worked out at 214.6 Å².
`Oc1ccc(I)cc1` [4-Iodophenol]: under setting [5], the “collision cross section in nitrogen” value is reported as 124.5 Å².
Still for that read-out and setting: the result for `CC(C)c1ccc(S(=O)(=O)O)cc1` [4-Isopropylbenzenesulfonic acid] reads 147.7 Å²; that for `CC(C)c1ccc(O)cc1` [4-Isopropylphenol], 134.1 Å².
In the case of `COc1ccc(Nc2ccccc2)c(C)c1` [4-Methoxy-2-methyl-N-phenylaniline], the “collision cross section in nitrogen” value is listed as 150.5 Å² under setting [1], 150.5 Å² under setting [2] and 148.1 Å² under setting [3].
`COc1ccc(N)c(C)c1` [4-Methoxy-2-methylaniline]: the “collision cross section in nitrogen” value reads like this: under setting [1], 124.8 Å²; under setting [2], 135.7 Å².
For `COc1ccc(N)cc1` [4-Methoxybenzenamine], in that order: 120.3 Å² and 133.2 Å².
As to `COc1ccc(O)cc1` [4-Methoxyphenol], the “collision cross section in nitrogen” value under setting [3] came out at 123.7 Å².
For `COc1ccc(CC#N)cc1` [4-Methoxyphenylacetonitrile], the “collision cross section in nitrogen” value under setting [1] was 127.3 Å².
As to `CC1CN(c2ccccc2)NC1=O` (stereo not given) [4-Methyl-1-phenylpyrazolidin-3-one], the “collision cross section in nitrogen” value under setting [3] is given as 138 Å².
Take `Cc1ccc(N)c([N+](=O)[O-])c1` [4-Methyl-2-nitroaniline]: the “collision cross section in nitrogen” value under setting [5] turned out to be 127.7 Å².
On to `Cc1ccc(S(=O)(=O)O)cc1` [4-Methylbenzenesulfonic acid hydrate], for which, under setting [5], the “collision cross section in nitrogen” value is 134.4 Å².
`Cc1ccnc(N)c1` [4-Methylpyridin-2-amine]: the “collision cross section in nitrogen” value is given as 118.1 Å² under setting [1] and 119.5 Å² under setting [2].
Take `Cc1cc(=O)oc2cc(O)ccc12` [4-Methylumbelliferone hydrate]: the “collision cross section in nitrogen” value by setting is: under setting [2], 133 Å²; under setting [5], 133.7 Å².
For `Cc1cc(=O)oc2cc(O)ccc12` [4-Methylumbelliferone], in that order: 132.6 Å² and 133.3 Å².
Take `NCCCN1CCOCC1` [4-Morpholinepropanamine]: the “collision cross section in nitrogen” value stood at 128.3 Å² under setting [1] and 128.2 Å² under setting [2].
As for `O=S(=O)(O)CCCN1CCOCC1` [4-Morpholinepropanesulfonic acid], the “collision cross section in nitrogen” value is 142.7 Å² under setting [1], 142.4 Å² under setting [2], 154.6 Å² under setting [4] and 149.5 Å² under setting [5].
In the case of `Nc1cc([N+](=O)[O-])ccc1C(=O)O` [4-Nitroanthranilic acid], under setting [5], the “collision cross section in nitrogen” value was 133.5 Å².
